Marks after values point to notes of the source that are not given here.
Tests used:
Type in all cases: in vivo
[1] = system: Botrytis cinerea (the causal agent of tomato Botrytis); test: Test C: tomato Botrytis, preventive spray on tomato seedlings, visual disease rating; conditions: tomato Botrytis, preventive spray on tomato seedlings
Excerpt: (§1) General protocol for preparing test suspensions for Tests A-D: the test compounds were first dissolved in acetone in an amount equal to 3% of the final volume and then suspended at the desired concentration (in ppm) in acetone and purified water (50/50 mix by volume) containing 250 ppm of the surfactant Trem® 014 (polyhydric alcohol esters). The resulting test suspensions were then used in Tests A-D. Spraying a 200 ppm test suspension to the point of run-off on the test plants was the equivalent of a rate of 800 g/ha.
The test suspension was sprayed to the point of run-off on tomato seedlings. The following day the seedlings were inoculated with a spore suspension of Botrytis cinerea (the causal agent of tomato Botrytis) and incubated in a saturated atmosphere at 20° C. for 48 h, and then moved to a growth chamber at 24° C. for 3 days, after which time visual disease ratings were made.
(§2) Results for Tests A-E are given in Table A. In the Table, a rating of 100 indicates 100% disease control and a rating of 0 indicates no disease control (relative to the controls). A dash (—) indicates no test results. An asterisk “*” next to the rating value indicates a 40 ppm test suspension was used.

[2] = system: Puccinia recondite f. sp. tritici (the causal agent of wheat leaf rust); test: Test A: wheat leaf rust, preventive spray on wheat seedlings, visual disease rating; conditions: wheat leaf rust, preventive spray on wheat seedlings
Excerpt: as §1
The test suspension was sprayed to the point of run-off on wheat seedlings. The following day the seedlings were inoculated with a spore suspension of Puccinia recondite f. sp. tritici (the causal agent of wheat leaf rust) and incubated in a saturated atmosphere at 20° C. for 24 h, and then moved to a growth chamber at 20° C. for 7 days, after which time visual disease ratings were made.
as §2

[3] = system: Blumeria graminis f. sp. tritici (also known as Erysiphe graminis f. sp. tritici, the causal agent of wheat powdery mildew); test: Test D: wheat powdery mildew, preventive spray on wheat seedlings, visual disease rating; conditions: wheat powdery mildew, preventive spray on wheat seedlings
Excerpt: as §1
The test suspension was sprayed to the point of run-off on wheat seedlings. The following day the seedlings were inoculated with a spore dust of Blumeria graminis f. sp. tritici, (also known as Erysiphe graminis f. sp. tritici, the causal agent of wheat powdery mildew) and incubated in a growth chamber at 20° C. for 8 days, after which time visual disease ratings were made.
as §2

[4] = system: Septoria tritici (the causal agent of wheat leaf blotch); test: Test B: wheat leaf blotch, preventive spray on wheat seedlings, visual disease rating; conditions: wheat leaf blotch, preventive spray on wheat seedlings
Excerpt: as §1
The test suspension was sprayed to the point of run-off on wheat seedlings. The following day the seedlings were inoculated with a spore suspension of Septoria tritici (the causal agent of wheat leaf blotch) and incubated in a saturated atmosphere at 24° C. for 48 h, and then moved to a growth chamber at 20° C. for 19 days, after which time visual disease ratings were made.
as §2

[5] = asterisk: 40 ppm test suspension
[6] = no asterisk (standard test suspension concentration, not 40 ppm)

Structure (SMILES): COc1cc(F)c(C(O)c2c(Cl)ncn2-c2ccc(F)cc2Cl)c(F)c1 (racemic) [compound 234]
- Test C rating (100 = 100% disease control, 0 = no disease control relative to the controls) [1, 5]: 26* %
- Test A rating (100 = 100% disease control, 0 = no disease control relative to the controls) [2, 5]: 99* %
- Test D rating (100 = 100% disease control, 0 = no disease control relative to the controls) [3, 5]: 43* %
- Test B rating (100 = 100% disease control, 0 = no disease control relative to the controls) [4, 5]: 79* %

Structure (SMILES): COc1cc(F)c(C(O)c2c(Br)nc(Br)n2-c2ccc(F)cc2Cl)c(F)c1 (racemic) [compound 235]
- Test C rating (100 = 100% disease control, 0 = no disease control relative to the controls) [1, 5]: 100* %
- Test A rating (100 = 100% disease control, 0 = no disease control relative to the controls) [2, 5]: 100* %
- Test D rating (100 = 100% disease control, 0 = no disease control relative to the controls) [3, 5]: 99* %
- Test B rating (100 = 100% disease control, 0 = no disease control relative to the controls) [4, 5]: 100* %

Structure (SMILES): COc1ccc(C(O)c2c(Cl)nc(Cl)n2-c2ccc(F)cc2F)c(Cl)c1 (racemic) [compound 236]
- Test C rating (100 = 100% disease control, 0 = no disease control relative to the controls) [1, 5]: 100* %
- Test A rating (100 = 100% disease control, 0 = no disease control relative to the controls) [2, 5]: 100* %
- Test D rating (100 = 100% disease control, 0 = no disease control relative to the controls) [3, 5]: 99* %
- Test B rating (100 = 100% disease control, 0 = no disease control relative to the controls) [4, 5]: 100* %

Structure (SMILES): COc1ccc(C(O)c2c(Cl)nc(Br)n2-c2c(F)cccc2F)c(Cl)c1 (racemic) [compound 237]
- Test C rating (100 = 100% disease control, 0 = no disease control relative to the controls) [1, 5]: 100* %
- Test A rating (100 = 100% disease control, 0 = no disease control relative to the controls) [2, 5]: 100* %
- Test D rating (100 = 100% disease control, 0 = no disease control relative to the controls) [3, 5]: 98* %
- Test B rating (100 = 100% disease control, 0 = no disease control relative to the controls) [4, 5]: 100* %

Structure (SMILES): Cc1nc(Br)c(C(O)c2ccc(F)cc2Cl)n1-c1ccc(F)cc1F (racemic) [compound 240]
- Test C rating (100 = 100% disease control, 0 = no disease control relative to the controls) [1, 5]: 99* %
- Test A rating (100 = 100% disease control, 0 = no disease control relative to the controls) [2, 5]: 99* %
- Test D rating (100 = 100% disease control, 0 = no disease control relative to the controls) [3, 5]: 89* %
- Test B rating (100 = 100% disease control, 0 = no disease control relative to the controls) [4, 5]: 100* %

Structure (SMILES): Cc1nc(Cl)c(C(O)c2ccc(F)cc2Cl)n1-c1ccc(F)cc1F (racemic) [compound 241]
- Test C rating (100 = 100% disease control, 0 = no disease control relative to the controls) [1, 5]: 99* %
- Test A rating (100 = 100% disease control, 0 = no disease control relative to the controls) [2, 5]: 100* %
- Test D rating (100 = 100% disease control, 0 = no disease control relative to the controls) [3, 5]: 21* %
- Test B rating (100 = 100% disease control, 0 = no disease control relative to the controls) [4, 5]: 100* %

Structure (SMILES): Cc1ncc(C(O)c2ccc(Cl)cc2)n1-c1ccc(Cl)cc1Cl (racemic) [compound 242]
- Test C rating (100 = 100% disease control, 0 = no disease control relative to the controls) [1, 5]: 29* %
- Test A rating (100 = 100% disease control, 0 = no disease control relative to the controls) [2, 5]: 94* %
- Test D rating (100 = 100% disease control, 0 = no disease control relative to the controls) [3, 5]: 0* %
- Test B rating (100 = 100% disease control, 0 = no disease control relative to the controls) [4, 5]: 50* %

Structure (SMILES): Cc1nc(Br)c(C(O)c2ccc(Cl)cc2)n1-c1ccc(Cl)cc1Cl (racemic) [compound 243]
- Test C rating (100 = 100% disease control, 0 = no disease control relative to the controls) [1, 5]: 91* %
- Test A rating (100 = 100% disease control, 0 = no disease control relative to the controls) [2, 5]: 98* %
- Test D rating (100 = 100% disease control, 0 = no disease control relative to the controls) [3, 5]: 79* %
- Test B rating (100 = 100% disease control, 0 = no disease control relative to the controls) [4, 5]: 95* %

Structure (SMILES): Cc1nc(Cl)c(C(O)c2ccc(Cl)cc2)n1-c1ccc(Cl)cc1Cl (racemic) [compound 244]
- Test C rating (100 = 100% disease control, 0 = no disease control relative to the controls) [1, 5]: 78* %
- Test A rating (100 = 100% disease control, 0 = no disease control relative to the controls) [2, 5]: 98* %
- Test D rating (100 = 100% disease control, 0 = no disease control relative to the controls) [3, 5]: 21* %
- Test B rating (100 = 100% disease control, 0 = no disease control relative to the controls) [4, 5]: 100* %

Structure (SMILES): Cc1nc(C)n(-c2c(F)cc(F)cc2Cl)c1C(O)c1ccc(F)cc1F (racemic) [compound 245]
- Test C rating (100 = 100% disease control, 0 = no disease control relative to the controls) [1, 5]: 91* %
- Test A rating (100 = 100% disease control, 0 = no disease control relative to the controls) [2, 5]: 100* %
- Test D rating (100 = 100% disease control, 0 = no disease control relative to the controls) [3, 5]: 84* %
- Test B rating (100 = 100% disease control, 0 = no disease control relative to the controls) [4, 5]: 100* %

Structure (SMILES): Cc1nc(C)n(-c2c(F)cc(Cl)cc2F)c1C(O)c1ccc(F)cc1F (racemic) [compound 246]
- Test C rating (100 = 100% disease control, 0 = no disease control relative to the controls) [1, 5]: 37* %
- Test A rating (100 = 100% disease control, 0 = no disease control relative to the controls) [2, 5]: 100* %
- Test D rating (100 = 100% disease control, 0 = no disease control relative to the controls) [3, 5]: 0* %
- Test B rating (100 = 100% disease control, 0 = no disease control relative to the controls) [4, 5]: 100* %

Structure (SMILES): Cc1nc(Br)n(-c2c(F)cc(F)cc2Cl)c1C(O)c1ccc(F)cc1F (racemic) [compound 250]
- Test C rating (100 = 100% disease control, 0 = no disease control relative to the controls) [1, 5]: 100* %
- Test A rating (100 = 100% disease control, 0 = no disease control relative to the controls) [2, 5]: 100* %
- Test D rating (100 = 100% disease control, 0 = no disease control relative to the controls) [3, 5]: 100* %
- Test B rating (100 = 100% disease control, 0 = no disease control relative to the controls) [4, 5]: 100* %

Structure (SMILES): Cc1ncc(C(O)c2ccc(F)cc2Br)n1-c1ccc(F)cc1Cl (racemic) [compound 251]
- Test C rating (100 = 100% disease control, 0 = no disease control relative to the controls) [1, 6]: 98%
- Test A rating (100 = 100% disease control, 0 = no disease control relative to the controls) [2, 6]: 100%
- Test D rating (100 = 100% disease control, 0 = no disease control relative to the controls) [3, 6]: 0%
- Test B rating (100 = 100% disease control, 0 = no disease control relative to the controls) [4, 6]: 93%

Structure (SMILES): Cc1nc(Br)c(C(O)c2ccc(F)cc2Br)n1-c1ccc(F)cc1Cl (racemic) [compound 253]
- Test C rating (100 = 100% disease control, 0 = no disease control relative to the controls) [1, 6]: 100%
- Test A rating (100 = 100% disease control, 0 = no disease control relative to the controls) [2, 6]: 100%
- Test D rating (100 = 100% disease control, 0 = no disease control relative to the controls) [3, 6]: 27%
- Test B rating (100 = 100% disease control, 0 = no disease control relative to the controls) [4, 6]: 100%

Structure (SMILES): COc1ccc(C(O)c2c(Br)nc(C)n2-c2ccc(F)cc2Cl)c(Cl)c1 (racemic) [compound 254]
- Test C rating (100 = 100% disease control, 0 = no disease control relative to the controls) [1, 6]: 100%
- Test A rating (100 = 100% disease control, 0 = no disease control relative to the controls) [2, 6]: 100%
- Test D rating (100 = 100% disease control, 0 = no disease control relative to the controls) [3, 6]: 83%
- Test B rating (100 = 100% disease control, 0 = no disease control relative to the controls) [4, 6]: 100%

Structure (SMILES): COc1ccc(C(O)c2c(Cl)nc(C)n2-c2ccc(F)cc2Cl)c(Cl)c1 (racemic) [compound 255]
- Test C rating (100 = 100% disease control, 0 = no disease control relative to the controls) [1, 6]: 8%
- Test A rating (100 = 100% disease control, 0 = no disease control relative to the controls) [2, 6]: 100%
- Test D rating (100 = 100% disease control, 0 = no disease control relative to the controls) [3, 6]: 0%
- Test B rating (100 = 100% disease control, 0 = no disease control relative to the controls) [4, 6]: 96%

Structure (SMILES): Cc1ncc(C(O)c2ccc(Cl)cc2Cl)n1-c1ccc(F)cc1F (racemic) [compound 256]
- Test C rating (100 = 100% disease control, 0 = no disease control relative to the controls) [1, 6]: 0%
- Test A rating (100 = 100% disease control, 0 = no disease control relative to the controls) [2, 6]: 55%
- Test D rating (100 = 100% disease control, 0 = no disease control relative to the controls) [3, 6]: 0%
- Test B rating (100 = 100% disease control, 0 = no disease control relative to the controls) [4, 6]: 6%

Structure (SMILES): COc1cc(F)c(C(O)c2cnc(C)n2-c2ccc(F)cc2F)c(F)c1 (racemic) [compound 257]
- Test C rating (100 = 100% disease control, 0 = no disease control relative to the controls) [1, 6]: 0%
- Test A rating (100 = 100% disease control, 0 = no disease control relative to the controls) [2, 6]: 92%
- Test D rating (100 = 100% disease control, 0 = no disease control relative to the controls) [3, 6]: 0%
- Test B rating (100 = 100% disease control, 0 = no disease control relative to the controls) [4, 6]: 24%

Structure (SMILES): COc1cc(F)c(C(O)c2c(Br)nc(C)n2-c2ccc(F)cc2F)c(F)c1 (racemic) [compound 258]
- Test C rating (100 = 100% disease control, 0 = no disease control relative to the controls) [1, 6]: 79%
- Test A rating (100 = 100% disease control, 0 = no disease control relative to the controls) [2, 6]: 100%
- Test D rating (100 = 100% disease control, 0 = no disease control relative to the controls) [3, 6]: 0%
- Test B rating (100 = 100% disease control, 0 = no disease control relative to the controls) [4, 6]: 95%

From patent US20130143929A1, “FUNGICIDAL IMIDAZOLES” (EI DU PONT DE NEMOURS AND COMPANY, priority 2010, published 2013)
